Source: PubChem BioAssay (NCI)
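Results reflect a 48-hour exposure of cells in 96-well plates to compound at five concentrations. TGI marks complete inhibition of growth.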 Where a SMILES comes first, the peptide text is derived from it. Bridges are numbered along the chain shown (N, C = ends). [ ]: non-standard residue; d: D form. The star is where a group is joined. Cbz = O=C(OCc1ccccc1)*; Aib = CC(C)(N)C(=O)O; OBn = c1ccc(CO*)cc1; βAla = NCCC(=O)O

Tests used:
Experiment in all cases: NCI anticancer screen, dose series, 48 h
MOLT-4 leukemia = system: MOLT-4 leukemia
HCT-15 colon = system: HCT-15 colon
786-0 renal = system: 786-0 renal
T-47D breast = system: T-47D breast
NCI-H226 lung = system: NCI-H226 lung
SF-268 CNS = system: SF-268 CNS
UACC-62 melanoma = system: UACC-62 melanoma
SF-295 CNS = system: SF-295 CNS
SK-MEL-5 melanoma = system: SK-MEL-5 melanoma
UACC-257 melanoma = system: UACC-257 melanoma
TK-10 renal = system: TK-10 renal
A549 NSCLC = system: A549 NSCLC
K-562 leukemia = system: K-562 leukemia
SF-539 CNS = system: SF-539 CNS
HL-60(TB) leukemia = system: HL-60(TB) leukemia
SN12C renal = system: SN12C renal
NCI-H23 lung = system: NCI-H23 lung
UO-31 renal = system: UO-31 renal
ACHN renal = system: ACHN renal

Structure (SMILES) | TGI (MOLT-4 leukemia) [µM] | TGI (HCT-15 colon) [µM] | TGI (786-0 renal) [µM] | TGI (T-47D breast) [µM] | TGI (NCI-H226 lung) [µM] | TGI (SF-268 CNS) [µM] | TGI (UACC-62 melanoma) [µM] | TGI (SF-295 CNS) [µM] | TGI (SK-MEL-5 melanoma) [µM] | TGI (UACC-257 melanoma) [µM] | TGI (TK-10 renal) [µM] | TGI (A549 NSCLC) [µM] | TGI (K-562 leukemia) [µM] | TGI (SF-539 CNS) [µM] | TGI (HL-60(TB) leukemia) [µM] | TGI (SN12C renal) [µM] | TGI (NCI-H23 lung) [µM] | TGI (UO-31 renal) [µM] | TGI (ACHN renal) [µM]
O=C(c1ccccc1)c1c2ccccn2c2cccc[n+]12 | > 100 | > 100 | > 100 | > 100 | > 100 | > 100 | > 100 | > 100 | > 100 | > 100 | > 100 | > 100 | > 100 | > 100 | > 100 | – | – | – | –
COC12C=CC(CC1)C(C)(C)C2=O (stereo unspecified) | > 100 | > 100 | > 100 | > 100 | > 100 | > 100 | > 100 | > 100 | > 100 | > 100 | > 100 | > 100 | > 100 | > 100 | > 100 | > 100 | > 100 | > 100 | > 100
O=P(c1ccccc1)(c1ccccc1)C(NCc1ccccc1)c1ccc(F)cc1 (stereo unspecified) | 37.5 | 28.7 | 34.8 | 60.7 | 40.4 | 37.4 | 27.3 | 29.4 | 29.6 | 34.9 | 32 | 30.2 | 65.4 | 36.2 | > 100 | 36.6 | 31.3 | 25.3 | 27.5
CCC1c2[nH]c3ccccc3c2C[C@H]2C(=O)NC(CCC(=O)OC(C)(C)C)C(=O)N12 (stereo partly specified) | > 100 | > 100 | > 100 | > 100 | > 100 | > 100 | > 100 | > 100 | > 100 | > 100 | > 100 | > 100 | > 100 | – | > 100 | > 100 | > 100 | > 100 | > 100
O=C(CC(=O)N(C(=O)c1ccccc1)c1ccc(Cl)cc1)N/N=C\c1cc(N=Nc2ccccc2Cl)ccc1O | 37.8 | > 100 | > 100 | > 100 | > 100 | > 100 | > 100 | > 100 | – | – | > 100 | > 100 | 36 | > 100 | 26.2 | > 100 | > 100 | > 100 | > 100
NC(N)=N/N=C/c1c(Cl)nc2sccn12 | > 100 | – | 32.7 | > 100 | 66.9 | > 100 | > 100 | 44.1 | 29.2 | 49 | > 100 | 93.8 | 87.4 | 37.8 | 42.1 | > 100 | > 100 | > 100 | 33.4
O=C(Nc1ccc2nc(-c3ccccc3)cn2c1)Oc1ccccc1 | > 100 | > 100 | > 100 | 76.9 | > 100 | > 100 | > 100 | > 100 | > 100 | > 100 | > 100 | > 100 | > 100 | – | > 100 | > 100 | > 100 | > 100 | > 100
CC1(C)NC(=O)C(NC(=O)C(CC(=O)OCc2ccccc2)NC(=O)OCc2ccccc2)CCCCNC(=O)CCNC1=O (stereo unspecified) (Cbz-D(OBn)K[Aib][βAla]; lactam 2-C; configuration not given here) | > 100 | > 100 | > 100 | > 100 | > 100 | > 100 | > 100 | > 100 | > 100 | – | > 100 | > 100 | > 100 | > 100 | > 100 | > 100 | > 100 | > 100 | > 100
CCCCn1c(C)c(C(=O)OCC)c2cc(OCc3ccc(C(=O)Nn4c(C)ccc4C)cc3)c(Br)cc21 | > 100 | > 100 | > 100 | > 100 | > 100 | > 100 | > 100 | > 100 | > 100 | > 100 | > 100 | > 100 | > 100 | > 100 | > 100 | > 100 | > 100 | – | > 100
S=C1Cc2c([nH]c3ccccc23)-c2ccccc2N1 | > 100 | – | > 100 | > 100 | 89.5 | > 100 | > 100 | > 100 | > 100 | > 100 | 52.9 | > 100 | > 100 | > 100 | > 100 | > 100 | > 100 | 58.9 | 80.6
CCOc1cc(NC(C)=O)ccc1C(=O)NN1C(=O)C(Oc2ccccc2)C1c1ccc(O)c(OC)c1 (stereo unspecified) | 32.3 | > 100 | > 100 | 77.9 | > 100 | – | – | > 100 | 49.5 | > 100 | > 100 | > 100 | > 100 | > 100 | 44.8 | 99.4 | > 100 | > 100 | > 100
Cn1c(=O)c2c(nc(NCCCCl)n2CC(=O)NCCCCl)n(C)c1=O | > 100 | > 100 | > 100 | > 100 | > 100 | > 100 | > 100 | > 100 | > 100 | > 100 | > 100 | > 100 | > 100 | – | > 100 | > 100 | > 100 | > 100 | > 100
CNC(=O)N1CCN(C(=O)NC)CCN(C(=O)NC)CC1 | > 100 | > 100 | > 100 | > 100 | > 100 | > 100 | > 100 | > 100 | > 100 | > 100 | > 100 | > 100 | > 100 | – | > 100 | > 100 | > 100 | > 100 | > 100
